# Assay results reported in patent US11517598B2 (priority 2016, dated 2022).
# Assays:
# [1] = tested on: VSVΔ51 in various human and mouse cancer cell lines; type: cell-based
# [2] = tested on: VSVΔ51 in various human and mouse cancer cell lines resistant to VSVΔ51 infection; type: cell-based
substance,measurement,setting,value
Sodium orthovanadate,plaque size,[1],substantially increased plaque size
same,VSVΔ51 infection and viral titer,[2],Comparable results
